Assays:
[1] = Determination of pKa of formulated lipids (TNS fluorescence assay in lipid nanoparticles); type: physicochemical; settings: lipid nanoparticles (compound/DSPC/cholesterol/PEG-lipid), lipid formulated in LNP (lipid/DSPC/cholesterol/PEG-lipid), pH at half-maximal intensity
Protocol: As described elsewhere, the pKa of formulated lipids is correlated with the effectiveness of LNPs for delivery of nucleic acids (see Jayaraman et al, Angewandte Chemie, International Edition (2012), 51(34), 8529-8533; Semple et al, Nature Biotechnology 28, 172-176 (2010)). In some embodiments, the preferred range of pKa is ˜5 to ˜7. The pKa of each lipid is determined in lipid nanoparticles using an assay based on fluorescence of 2-(p-toluidino)-6-napthalene sulfonic acid (TNS). Lipid nanoparticles comprising compound of structure (I)/DSPC/cholesterol/PEG-lipid (50/10/38.5/1.5 or 47.5:10:40.7:1.8 mol %) in PBS at a concentration of 0.4 mM total lipid are prepared using the in-line process as described in Example 1. TNS is prepared as a 100 μM stock solution in distilled water. Vesicles are diluted to 24 μM lipid in 2 mL of buffered solutions containing 10 mM HEPES, 10 mM MES, 10 mM ammonium acetate, and 130 mM NaCl, where the pH ranged from 2.5 to 11. An aliquot of the TNS solution is added to give a final concentration of 1 μM and following vortex mixing fluorescence intensity is measured at room temperature in a SLM Aminco Series 2 Luminescence Spectrophotometer using excitation and emission wavelengths of 321 nm and 445 nm. A sigmoidal best fit analysis is applied to the fluorescence data and the pKa is measured as the pH giving rise to half-maximal fluorescence intensity.

[2] = system: luciferase expression in the liver; assay: Luciferase mRNA in vivo evaluation using lipid nanoparticle compositions; set-up: species or system mice; settings: LNP with FLuc mRNA, tail vein injection, ng luciferase/g liver 4 hours after administration; for Liver Luc @ 0.3 mg/kg: 0.3 mg mRNA/kg; for Liver Luc @ 1.0 mg/kg: 1.0 mg mRNA/kg
Protocol: (§1) A lipid of structure (I), DSPC, cholesterol and PEG-lipid are solubilized in ethanol at a molar ratio of 50:10:38.5:1.5 or 47.5:10:40.7:1.8. Lipid nanoparticles (LNP) are prepared at a total lipid to mRNA weight ratio of approximately 10:1 to 40:1. Briefly, the mRNA is diluted to 0.2 mg/mL in 10 to 50 mM citrate buffer, pH 4 or 10 to 25 mM acetate buffer, pH 4. Syringe pumps are used to mix the ethanolic lipid solution with the mRNA aqueous solution at a ratio of about 1:5 to 1:3 (vol/vol) with total flow rates above 15 mL/min. The ethanol is then removed and the external buffer replaced with PBS by dialysis. Finally, the lipid nanoparticles are filtered through a 0.2 µm pore sterile filter.
Studies are performed in 6-8 week old female C57BL/6 mice (Charles River) 8-10 week old CD-1 (Harlan) mice (Charles River) according to guidelines established by an institutional animal care committee (ACC) and the Canadian Council on Animal Care (CCAC). Varying doses of mRNA-lipid nanoparticle are systemically administered by tail vein injection and animals euthanized at a specific time point (e.g., 4 hours) post-administration. Liver and spleen are collected in pre-weighed tubes, weights determined, immediately snap frozen in liquid nitrogen and stored at −80° C. until processing for analysis.
For liver, approximately 50 mg is dissected for analyses in a 2 mL FastPrep tubes (MP Biomedicals, Solon OH). ¼″ ceramic sphere (MP Biomedicals) is added to each tube and 500 μL of Glo Lysis Buffer—GLB (Promega, Madison WI) equilibrated to room temperature is added to liver tissue. Liver tissues are homogenized with the FastPrep24 instrument (MP Biomedicals) at 2×6.0 m/s for 15 seconds. Homogenate is incubated at room temperature for 5 minutes prior to a 1:4 dilution in GLB and assessed using SteadyGlo Luciferase assay system (Promega). Specifically, 50 μL of diluted tissue homogenate is reacted with 50 μL of SteadyGlo substrate, shaken for 10 seconds followed by 5 minute incubation and then quantitated using a CentroXS^3 LB 960 luminometer (Berthold Technologies, Germany). The amount of protein assayed is determined by using the BCA protein assay kit (Pierce, Rockford, IL). Relative luminescence units (RLU) are then normalized to total μg protein assayed. To convert RLU to ng luciferase a standard curve is generated with QuantiLum Recombinant Luciferase (Promega).
The FLuc mRNA (L-6107) from Trilink Biotechnologies will express a luciferase protein, originally isolated from the firefly, Photinus pyralis. FLuc is commonly used in mammalian cell culture to measure both gene expression and cell viability. It emits bioluminescence in the presence of the substrate, luciferin. This capped and polyadenylated mRNA is fully substituted with 5-methylcytidine and pseudouridine.
(§2) Representative compounds of the disclosure shown in Table 2 were formulated using the following molar ratio: 50% cationic lipid/10% distearoylphosphatidylcholine (DSPC)/38.5% Cholesterol/1.5% PEG lipid 2-[2-(ω-methoxy(polyethyleneglycol2000)ethoxy]-N,N-ditetradecyl acetamide) or 47.5% cationic lipid/10% DSPC/40.7% Cholesterol/1.8% PEG lipid. Relative activity was determined by measuring luciferase expression in the liver 4 hours following administration via tail vein injection as described in Example 1 or by measuring the amount of human IgG in mouse serum as described in example 2. The activity was compared at a dose of 1.0 or 0.5 or 0.3 mg mRNA/kg and expressed as ng luciferase/g liver measured 4 hours after administration, as described in Example 1 or as μg IgG/mL serum measured 24 hours after administration, as described in Example 2. Compound numbers in Table 2 refer to the compound numbers of Table 1.

[3] = system: human IgG in mouse serum; assay: Immunoglobulin G (IgG) mRNA in vivo evaluation using lipid nanoparticle compositions; set-up: species or system mice; settings: LNP with IgG mRNA, tail vein injection, serum 24 hours after administration; for Serum IgG @ 0.3 mg/kg: 0.3 mg mRNA/kg; for Serum IgG @ 1.0 mg/kg: 1.0 mg mRNA/kg
Protocol: as §1
Studies are performed in 6-8 week old CD-1/ICR mice (Envigo) according to guidelines established by an institutional animal care committee (ACC) and the Canadian Council on Animal Care (CCAC). Varying doses of mRNA-lipid nanoparticle are systemically administered by tail vein injection and animals euthanized at a specific time point (e.g., 24 hours) post-administration. The whole blood is collected, and the serum subsequentially separated by centrifuging the tubes of the whole blood at 2000×g for 10 minutes at 4° C. and stored at −80° C. until use for analysis.
For immunoglobulin G (IgG) ELISA (Life Diagnostics Human IgG ELISA kit), the serum samples are diluted at 100 to 15000 folds with 1×diluent solution. 100 μL of diluted serum is dispensed into anti-human IgG coated 96-well plate in duplicate alongside human IgG standards and incubated in a plate shaker at 150 rpm at 25° C. for 45 minutes. The wells are washed 5 times with 1× wash solution using a plate washer (400 μL/well). 100 μL of HRP conjugate is added into each well and incubated in a plate shaker at the same condition above. The wells are washed 5 times again with 1× wash solution using a plate washer (400 μL/well). 100 μL of TMB reagent is added into each well and incubated in a plate shaker at the same condition above. The reaction is stopped by adding 100 μL of Stop solution to each well. The absorbance is read at 450 nm (A450) with a microplate reader. The amount of human IgG in mouse serum is determined by plotting A450 values for the assay standard against human IgG concentration.
as §2

CCCCCCCCCCN(CCCCCCCCCC)C(=O)CCCCCCCN(CCO)CCCCCCCC(=O)N(CCCCCCCCCC)CCCCCCCCCC [Compound I-22, 8,8′-((2-hydroxyethyl)azanediyl)bis(N,N-didecyloctanamide)]
pKa [1]: 6.47
Liver Luc @ 0.3 mg/kg [2]: 12829 ± 3326 ng/g
Liver Luc @ 1.0 mg/kg [2]: 38933 ± 23162 ng/g
Serum IgG @ 0.3 mg/kg [3]: 31.00 ± 9.33 µg/mL
Serum IgG @ 1.0 mg/kg [3]: 99.12 ± 18.03 µg/mL

CCCCCCCCCCN(CCCCCCCCCC)C(=O)CCCCCCCN(CCCCCO)CCCCCCCC(=O)N(CCCCCCCCCC)CCCCCCCCCC [Compound I-21, 8,8′-((5-hydroxypentyl)azanediyl)bis(N,N-didecyloctanamide)]
pKa [1]: 6.54
Liver Luc @ 0.3 mg/kg [2]: 29492 ± 4887 ng/g
Liver Luc @ 1.0 mg/kg [2]: 43216 ± 25636 ng/g
Serum IgG @ 0.3 mg/kg [3]: 48.78 ± 6.88 µg/mL
Serum IgG @ 1.0 mg/kg [3]: 220.38 ± 62.57 µg/mL

CCCCCCCCCCN(CCCCCCCCCC)C(=O)CCCCCCCN(CCCCO)CCCCCCCC(=O)N(CCCCCCCCCC)CCCCCCCCCC [Compound I-23, 8,8′-((4-hydroxybutyl)azanediyl)bis(N,N-didecyloctanamide)]
pKa [1]: 6.48
Liver Luc @ 0.3 mg/kg [2]: 15876 ± 7588 ng/g
Liver Luc @ 1.0 mg/kg [2]: 34202 ± 19178 ng/g
Serum IgG @ 0.3 mg/kg [3]: 43.34 ± 7.70 µg/mL
Serum IgG @ 1.0 mg/kg [3]: 103.91 ± 31.29 µg/mL

CCCCCCCCCCN(CCCCCCCCCC)C(=O)C(F)CCCCCCN(CCCCCO)CCCCCCC(F)C(=O)N(CCCCCCCCCC)CCCCCCCCCC (centres unmarked) [Compound I-82, 8,8′-((5-hydroxypentyl)azanediyl)bis(N,N-didecyl-2-fluorooctanamide)]
pKa [1]: 6.47
Serum IgG @ 0.3 mg/kg [3]: 24.36 ± 4.39 µg/mL
Serum IgG @ 1.0 mg/kg [3]: 239.26 ± 39.80 µg/mL

CCCCCCCCCCN(CCCCCCCCCC)C(=O)CCCCCCCN(CCCCCCCC(=O)N(CCCCCCCCCC)CCCCCCCCCC)CCCn1ccnc1C [Compound I-44, 8,8′-((3-(2-methyl-1H-imidazol-1-yl)propyl)azanediyl)bis(N,N-didecyloctanamide)]
pKa [1]: 6.69
Serum IgG @ 0.3 mg/kg [3]: 0.59 ± 0.11 µg/mL
Serum IgG @ 1.0 mg/kg [3]: 1.86 ± 0.27 µg/mL

CCCCCCCCCCN(CCCCCCCCCC)C(=O)CCCCCCCN(CCCCCCCC(=O)N(CCCCCCCCCC)CCCCCCCCCC)CCCn1ccnc1 [Compound I-48, 8,8′-((3-(1H-imidazol-1-yl)propyl)azanediyl)bis(N,N-didecyloctanamide)]
pKa [1]: 6.63
Serum IgG @ 0.3 mg/kg [3]: 1.02 ± 0.20 µg/mL
Serum IgG @ 1.0 mg/kg [3]: 3.40 ± 0.87 µg/mL

CCCCCCCCCCCCN(CCCCCCCCCCCC)C(=O)CCCCCCCN(CCO)CCCCCCCC(=O)N(CCCCCCCCCCCC)CCCCCCCCCCCC [Compound I-37, 8,8′-((2-hydroxyethyl)azanediyl)bis(N,N-didodecyloctanamide)]
pKa [1]: 6.39
Serum IgG @ 0.3 mg/kg [3]: 1.75 ± 0.58 µg/mL
Serum IgG @ 1.0 mg/kg [3]: 10.05 ± 2.32 µg/mL

CCCCCCCCCCCCN(CCCCCCCCCCCC)C(=O)CCCCCN(C)CCCCCC(=O)N(CCCCCCCCCCCC)CCCCCCCCCCCC [Compound I-11, 6,6′-(methylazanediyl)bis(N,N-didodecylhexanamide)]
pKa [1]: 6.67
Serum IgG @ 0.3 mg/kg [3]: 8.22 ± 0.84 µg/mL
Serum IgG @ 1.0 mg/kg [3]: 47.68 ± 5.26 µg/mL

CCCCCCCCCCN(CCCCCCCCCC)C(=O)C(F)CCCCCCN(C)CCCCCCC(F)C(=O)N(CCCCCCCCCC)CCCCCCCCCC (centres unmarked) [Compound I-83, 8,8′-(methylazanediyl)bis(N,N-didecyl-2-fluorooctanamide)]
pKa [1]: 6.12
Serum IgG @ 0.3 mg/kg [3]: 12.94 ± 2.03 µg/mL
Serum IgG @ 1.0 mg/kg [3]: 142.26 ± 26.31 µg/mL

CCCCCCCCCCCCN(CCCCCCCCN(CCCCCO)CCCCCCCCN(CCCCCCCCCCCC)C(=O)CCCCCCCCCCC)C(=O)CCCCCCCCCCC [Compound I-68, N,N′-(((5-hydroxypentyl)azanediyl)bis(octane-8,1-diyl))bis(N-dodecyldodecanamide)]
pKa [1]: 6.41
Serum IgG @ 0.3 mg/kg [3]: 12.30 ± 2.41 µg/mL
Serum IgG @ 1.0 mg/kg [3]: 121.93 ± 34.85 µg/mL

CCCCCCCCCCCCN(CCCCCCCCN(C)CCCCCCCCN(CCCCCCCCCCCC)C(=O)CCCCCCCCCCC)C(=O)CCCCCCCCCCC [Compound I-67, N,N′-((methylazanediyl)bis(octane-8,1-diyl))bis(N-dodecyldodecanamide)]
pKa [1]: 6.18
Serum IgG @ 0.3 mg/kg [3]: 7.19 ± 1.41 µg/mL
Serum IgG @ 1.0 mg/kg [3]: 62.94 ± 13.88 µg/mL

CCCCCCCCCCN(CCCCCCCCCC)C(=O)CCCCCCCN(CCCO)CCCCCCCC(=O)N(CCCCCCCCCC)CCCCCCCCCC [Compound I-41, 8,8′-((3-hydroxypropyl)azanediyl)bis(N,N-didecyloctanamide)]
pKa [1]: 6.6
Serum IgG @ 0.3 mg/kg [3]: 4.78 ± 1.65 µg/mL

CCCCCCCCCCN(CCCCCCCCN(CCCCCO)CCCCCCCCN(CCCCCCCCCC)C(=O)CCCCCCCCC)C(=O)CCCCCCCCC [Compound I-66, N,N′-(((5-hydroxypentyl)azanediyl)bis(octane-8,1-diyl))bis(N-decyldecanamide)]
pKa [1]: 6.49
Serum IgG @ 0.3 mg/kg [3]: 32.06 ± 5.07 µg/mL
Serum IgG @ 1.0 mg/kg [3]: 253.37 ± 52.48 µg/mL

Source: patent US12129223B2, “Lipids for use in lipid nanoparticle formulations” (Acuitas Therapeutics, Inc., priority 2021, dated 2024)
